Laboratory results as given in patent US7393824B1, “Methods of peptide preparation” (Lytix Biopharma, priority 2000, dated 2008).
Like-named read-outs stand apart in the source and are kept apart here. Residues, ends and D or L forms follow the SMILES beside them.

Experiments:
Format in all cases: cell-based
[1] = tested on: MRC-5 cells (normal fibroblasts); assay: Fibroblast assay (MTT)
Protocol: The cells were washed with PBS and then trypsinated using 2 ml trypsin (for a 80 cm culture flask). After the cells had detached from the wall, usually after ca 3 min. of incubation, 5 ml medium with FBS were added. The cells were resuspended and counted. The cells were then transferred to a centrifugation tube and spinned at 1500 rpm for 10 min. The supernatant was removed and the cells resuspended to a concentration of 1×10^5 cells/ml. 100 ul cells suspension was transferred to each well in a 96-well microtiter plate and incubated for 25 hours to allow the cells to attach. Following the incubation, the medium containing serum was removed by turning the plate upside down against a piece of tissue. 100 ul medium without serum and L-glutamine (assay medium) was added to each well, and then removed as before. This was done to remove any trace of serum. […] The rest of the assay was done as previously described for methA, except that after the 2 hour incubation following MTT addition, 80 ul medium instead of 130 ul were removed.

human red blood cells = assay: Hemolytic assay; details: red cells of human
Protocol: The hemolytic activities of the peptides were determined using fresh human red blood cells. 8 ml blood was taken from a healthy person. 4 ml blood was transferred to a polycarbonate tube containing heparin to a final concentration of 10 U/ml, and the remaining 4 ml blood was transferred to a glass tube containing EDTA with final concentration of 15% EDTA. The erythrocytes were isolated from heparin-treated blood by centrifugation in 1500 rpm for 10 min and washed three times with phosphate-buffered saline (PBS) to remove plasma and buffy coat. The cell pellet was resuspended in PBS to make the final volume of 4 ml. The peptide was diluted to a concentration of 2 mg/ml and 0.1 mg/ml. The peptide was further diluted to the concentrations as stated in Table 1. For each tube PBS was added first, then RBCs and peptide solutions. The hematocrit in the blood treated with EDTA was determined after 30 min with Sysmex K-1000, and the resuspended RBCs were diluted into 10% hematocrit. RBCs in PBS (1%) with and without peptides (Table 18) were incubated in a shaker at […] for 1 hour and then centrifuged at 4000 rpm for 5 min. The supernatant were carefully transferred to new polycarbonate tubes and the absorbance of the supernatant was measured at 540 nm. Baseline hemolysis was hemoglobin released in the presence of PBS, and 100% hemolysis was hemoglobin released in the presence of 0.1% Triton X-100.

[2] = tested on: Meth A murine sarcoma cell line
Protocol: Peptide solutions (0.1 ml) were added and the plates incubated at 37° C. for 30 minutes, 4 hours or 24 hours. The cytotoxicity was measured using the MTT method (Mosmann et al., J. Immunol. (1986) 136, 2348-2357).

| SMILES | IC50 [1] | EC50 (human red blood cells) | IC50 ([2]; Table 1, KA18 peptides, read-out: IC50 Meth A) | IC50 ([2]; 4 h) | toxicity to fibroblasts [1] |
| --- | --- | --- | --- | --- | --- |
| C[C@H](NC(=O)[C@H](C)NC(=O)[C@H](CCCCN)NC(=O)[C@H](CCCCN)NC(=O)[C@H](Cc1c[nH]c2ccccc12)NC(=O)[C@H](C)NC(=O)[C@H](CCCCN)NC(=O)[C@H](C)NC(=O)[C@H](Cc1c[nH]c2ccccc12)NC(=O)[C@H](CCCCN)NC(=O)[C@H](CCCCN)NC(=O)[C@H](C)NC(=O)[C@H](C)NC(=O)[C@@H](N)CCCCN)C(=O)N[C@@H](CCCCN)C(=O)N[C@@H](C)C(=O)N[C@@H](Cc1c[nH]c2ccccc12)C(=O)N[C@@H](CCCCN)C(=O)O [KA 18W6,10,17] (H-KAAKKWAKAWKKAAKAWK-OH; N-terminus and C-terminus assumed) | > 211 µM | > 422 µM | ≥ 211 µM | – | – |
| C[C@H](NC(=O)[C@H](C)NC(=O)[C@H](CCCCN)NC(=O)[C@H](CCCCN)NC(=O)[C@H](C)NC(=O)[C@H](Cc1c[nH]c2ccccc12)NC(=O)[C@H](CCCCN)NC(=O)[C@H](Cc1c[nH]c2ccccc12)NC(=O)[C@H](C)NC(=O)[C@H](CCCCN)NC(=O)[C@H](CCCCN)NC(=O)[C@H](C)NC(=O)[C@H](C)NC(=O)[C@@H](N)CCCCN)C(=O)N[C@@H](CCCCN)C(=O)N[C@@H](Cc1c[nH]c2ccccc12)C(=O)N[C@@H](C)C(=O)N[C@@H](CCCCN)C(=O)O [KA 18W7,9,16] (H-KAAKKAWKWAKKAAKWAK-OH; N-terminus and C-terminus assumed) | > 211 µM | > 422 µM | – | 32 µM | – |
| C[C@H](NC(=O)[C@H](C)NC(=O)[C@H](CCCCN)NC(=O)[C@H](C)NC(=O)[C@H](C)NC(=O)[C@H](CCCCN)NC(=O)[C@H](CCCCN)NC(=O)[C@H](Cc1c[nH]c2ccccc12)NC(=O)[C@H](C)NC(=O)[C@H](CCCCN)NC(=O)[C@H](C)NC(=O)[C@H](C)NC(=O)[C@H](CCCCN)NC(=O)[C@H](CCCCN)NC(=O)[C@H](C)NC(=O)[C@H](C)NC(=O)[C@@H](N)CCCCN)C(=O)N[C@@H](CCCCN)C(=O)O [KA 18W10] (H-KAAKKAAKAWKKAAKAAK-OH; N-terminus and C-terminus assumed) | > 234 µM | > 467 µM | – | > 234 µM | – |
| C[C@H](NC(=O)[C@H](C)NC(=O)[C@H](CCCCN)NC(=O)[C@H](CCCCN)NC(=O)[C@H](C)NC(=O)[C@H](C)NC(=O)[C@@H](N)CCCCN)C(=O)N[C@@H](CCCCN)C(=O)N[C@@H](C)C(=O)N[C@@H](C)C(=O)N[C@@H](CCCCN)C(=O)N[C@@H](CCCCN)C(=O)N[C@@H](C)C(=O)N[C@@H](C)C(=O)N[C@@H](CCCCN)C(=O)N[C@@H](Cc1c[nH]c2ccccc12)C(=O)N[C@@H](C)C(=O)N[C@@H](CCCCN)C(=O)O [KA 18W16] (H-KAAKKAAKAAKKAAKWAK-OH; N-terminus and C-terminus assumed) | > 234 µM | > 467 µM | – | > 234 µM | – |
| CSCC[C@H](NC(=O)[C@H](CCCNC(=N)N)NC(=O)[C@H](Cc1c[nH]c2ccccc12)NC(=O)[C@H](C)NC(=O)[C@H](Cc1c[nH]c2ccccc12)NC(=O)[C@H](CCCNC(=N)N)NC(=O)[C@H](Cc1ccccc1)NC(=O)[C@H](C)NC(=O)[C@H](CCCCN)NC(=O)[C@H](CCCNC(=N)N)NC(=O)[C@H](Cc1c[nH]c2ccccc12)NC(=O)[C@H](C)NC(=O)[C@@H]1CCCN1)C(=O)N[C@@H](CC(C)C)C(=O)N[C@@H](CCCCN)C(=O)N[C@@H](CCCCN)C(=O)N[C@@H](C)C(=O)N[C@@H](C)C(=O)O [LFB (14-31)m, PAWRKAFRWAWRMLKKAA] (H-PAWRKAFRWAWRMLKKAA-OH) | – | – | – | – | highly toxic to fibroblasts |
| CC[C@H](C)[C@H](NC(=O)[C@H](CCCNC(=N)N)NC(=O)[C@H](Cc1ccccc1)NC(=O)[C@H](C)NC(=O)[C@H](CCCCN)NC(=O)[C@H](CCCNC(=N)N)NC(=O)[C@H](Cc1c[nH]c2ccccc12)NC(=O)[C@H](C)NC(=O)[C@@H]1CCCN1)C(=O)N[C@@H](C)C(=O)N[C@@H](Cc1c[nH]c2ccccc12)C(=O)N[C@@H](CCCNC(=N)N)C(=O)N[C@@H](CCSC)C(=O)N[C@@H](CC(C)C)C(=O)N[C@@H](CCCCN)C(=O)N[C@@H](CCCCN)C(=O)N[C@@H](C)C(=O)N[C@@H](C)C(=O)O [W9→I9] (H-PAWRKAFRIAWRMLKKAA-OH; N-terminus and C-terminus assumed) | – | 155 µM | – | – | – |
